Results on three compounds are retold here after PMC8954204, “Synthesis and Evaluation of a ^18F-Labeled Ligand for PET Imaging of Colony-Stimulating Factor 1 Receptor” (Pharmaceuticals, 2022).

The IC50 is the concentration that gives 50% inhibition. Higher therefore signals a need for much substance.

Data set [1] has as its system CSF1R. Also noted: method as in PMID 33757319. The note with it: rhesus monkey; cited from earlier work.
Data set [2] addresses T1, CSF1R (Homo sapiens, UniProt P07333).
T1 construct: purchased Abcam
Put plainly: FRET-based Z'-LYTE kinase assay, binding affinity for CSF1R. Format: biochemical. Conditions: FRET-based method, 1 mM ATP, mean ± S.D. of three measurements.
Method: The binding affinity of ligand 1 for CSF1R was measured using a fluorescence resonance energy transfer (FRET)-based method.
The final concentration of DMSO in the incubation mixture was 1%. The mixtures were incubated at room temperature for 1 h, followed by development reaction incubations at room temperature for 1 h. The fluorescence intensity of the incubation mixtures was measured (excitation, 400 nm; emission, 445 nm (donor) and 520 nm (acceptor)) using a Mithras^2 LB 943 monochromator multimode microplate reader (Berthold Technologies, Bad Wildbad, Germany), and the phosphorylation extent of the FRET-peptide was calculated. All experiments were performed in triplicate, and the IC50 values represent the average of three experimental determinations.

Data set [3] can be described thus: octanol-water partition coefficient. Format: physicochemical. The note with it: 1-octanol/water; read-out: log P (octanol-water partition coefficient). The protocol:
Radioligand [^18F]1 was dissolved in 800 μL 1-octanol and mixed with 800 μL water, vortexed vigorously for 5 min, and centrifuged. Two layers were separated, and 100 μL aliquots of the 1-octanol and aqueous layers were removed and counted. Samples from the 1-octanol and aqueous layers were repartitioned until consistent values were obtained. The log P is expressed as the logarithm of the ratio of the counts per minute from octanol versus that of water.

The target in data set [4] is T1, CSF1R. Briefly: binding study of radioligand on CSF1R-coated well plates. The protocol:
A binding study of radioligand [^18F]1 for CSF1R was also performed using well plates coated with CSF1R.
A binding study of [^18F]1 for CSF1R was performed using detachable 96-well polystyrene plates (Nest Scientific, Rahway, NJ, USA). The plates were coated with 50 μL of CSF1R (200 μg/mL) in 0.05 M carbonate-bicarbonate buffer (pH 9.6). Non-coated plates were used for a control experiment. The CSF1R-coated and non-coated plates were incubated at 4 °C overnight and washed three times with PBS-T (20 mM PBS (pH 7.4) with 0.05% Tween-20). The unoccupied sites were blocked with blocking buffer (5% BSA in PBS-T) at room temperature for 1 h, and the plates were washed three times with PBS-T. [^18F]1 was dissolved in DMSO, and two-fold serial dilutions ranging from 1:100 to 1:400 were made from the radioligand solution. The diluted radioligand solutions were added to the CSF1R-coated and non-coated wells, which were then incubated at room temperature for 1 h. After incubation, the plates were washed three times with PBS-T. The wells were detached, and the radioligand bound to the wells was measured using a gamma counter and expressed as counts per minute (cpm). All experiments were performed in triplicate.

Data set [5] is described as follows: ex vivo biodistribution in control, LPS and LPS+block mice. Also noted: species or system ICR mice. The note with it: for blood uptake / brain uptake / femur uptake / kidney uptake / liver uptake / muscle uptake / spleen uptake: 45 min after i.v. injection, n = 4. The protocol:
Ex vivo biodistribution studies were performed in three groups of mice (control, LPS, and LPS+block groups) at 45 min after intravenous (i.v.) injection of [^18F]1. […] Therefore, we performed the ex vivo biodistribution studies at 45 min after injection of [^18F]1 (Table 2). […] The relatively low level of inhibition can be attributed to the injection route and time of the blocking agent, i.p. administration 5 min prior to radioligand injection, which might not have allowed time for sufficient blocking. However, most of the PET radioligands currently developed for CSF1R imaging have low uptake or high non-specific binding in the brains of rodents and non-human primates. […] In this context, further blocking studies of [^18F]1 need to be conducted using the optimized injection time points of the blocking agents and using other potent CSF1R inhibitors as the blocking agents. […] In addition, these biodistribution data matched with the whole-body PET images of the control and LPS mice (Figure S2).
ICR male mice aged between 5 and 6 weeks were used in this study. The mice were provided drinking water and a normal diet ad libitum and were maintained under a 12 h light-dark cycle at 24 ± 1 °C with 50% humidity. The LPS-treated mouse model was prepared by injecting LPS (10 mg/kg in saline) i.p. into mice, and all experiments were carried out on the third day after LPS injection. Tissue radioactivity was counted using an automatic gamma counter (PerkinElmer, Waltham, MA, USA). MicroPET/CT images were acquired using an Inveon microPET/CT scanner (Siemens Medical Solutions, Knoxville, TN, USA).
ICR mice were divided into three groups: control, LPS, and LPS+block groups (n = 4 per group). […] Control and LPS-treated mice were injected i.p. with 100 μL of vehicle (10% DMSO-saline) at 5 min prior to the radioligand injection. At 45 min after radioligand injection, mice were sacrificed by cervical dislocation, and the blood and major tissues (brain, muscle, femur, liver, spleen, and kidney) were separated, weighed, and counted. Data are expressed as a percentage of injected dose per gram of tissue (% ID/g).

The nature of data set [6]: dynamic microPET/CT imaging, whole brain time activity curve. The format is in vivo, ICR mice. Conditions: control and LPS mouse, whole brain TAC. The source says: Dynamic PET/CT images of control and LPS mice were acquired, and the brain uptake was higher in the LPS mouse than in the control mouse (Figure 4A). […] In the control mouse, there was uptake in the decreasing order of the thalamus, striatum, hypothalamus, frontal cortex, and cerebellum (Figure 4C). In the 5.5-week-old mice used in our study, the frontal cortex and cerebellum had similar levels of uptake, although the cerebral cortex has markedly higher CSF1R expression than does the cerebellum in older adult mice. In the LPS mouse, a pattern similar to that of the control mouse was observed, with high uptake in the thalamus and striatum, and intermediate to low uptake in the hypothalamus, cerebellum, and frontal cortex (Figure 4C).
Dynamic PET scans of mice (one control and one LPS) were initiated simultaneously with tail vein injection of [^18F]1 (7.4 ± 0.1 MBq/mouse) and performed for 60 min (15 s × 8 frames, 30 s × 10 frames, 60 s × 3 frames, 240 s × 5 frames, 300 s × 6 frames, 32 frames in total); CT images followed for 20 min. […]
Analysis of dynamic PET data was performed using the PMOD 3.308 software (PMOD Technologies, Zurich, Switzerland). […] Several volumes of interest (VOIs) were determined on the mouse brain template: whole brain, striatum (mean value of the left and right striata), thalamus, hypothalamus, frontal cortex, and cerebellum. […]

Data set [7] in a line: metabolism study, HPLC of brain homogenates and blood samples. The format is in vivo, ICR mice. The note with it: control mice. The protocol:
In order to confirm that the brain uptake was due to the radioligand, we analyzed the brain homogenates and blood samples of control mice using HPLC. […] However, approximately 65% of the radioligand in the blood samples was converted to polar radiometabolites within 30 min after injection (Figure S3).
ICR mice (n = 1 per time point) were injected with [^18F]1 (18.5 MBq) via a tail vein. At 5 and 30 min after injection, mice were sacrificed, and samples of brain and blood were obtained. The samples were homogenized in 1 mL of acetonitrile and centrifuged. The supernatants were analyzed by HPLC using an analytical column eluted with a 45:55 mixture of 0.05 M ammonium formate (aq.) and acetonitrile at a flow rate of 1 mL/min. Eluates were monitored using a NaI(T1) radioactivity detector.

[8] abbreviates: LPS+block mice (CPPC 1 mg/kg i.p. 5 min before).

Molecules are shown by their SMILES.

T1 sequence (P07333 20-972, species assumed): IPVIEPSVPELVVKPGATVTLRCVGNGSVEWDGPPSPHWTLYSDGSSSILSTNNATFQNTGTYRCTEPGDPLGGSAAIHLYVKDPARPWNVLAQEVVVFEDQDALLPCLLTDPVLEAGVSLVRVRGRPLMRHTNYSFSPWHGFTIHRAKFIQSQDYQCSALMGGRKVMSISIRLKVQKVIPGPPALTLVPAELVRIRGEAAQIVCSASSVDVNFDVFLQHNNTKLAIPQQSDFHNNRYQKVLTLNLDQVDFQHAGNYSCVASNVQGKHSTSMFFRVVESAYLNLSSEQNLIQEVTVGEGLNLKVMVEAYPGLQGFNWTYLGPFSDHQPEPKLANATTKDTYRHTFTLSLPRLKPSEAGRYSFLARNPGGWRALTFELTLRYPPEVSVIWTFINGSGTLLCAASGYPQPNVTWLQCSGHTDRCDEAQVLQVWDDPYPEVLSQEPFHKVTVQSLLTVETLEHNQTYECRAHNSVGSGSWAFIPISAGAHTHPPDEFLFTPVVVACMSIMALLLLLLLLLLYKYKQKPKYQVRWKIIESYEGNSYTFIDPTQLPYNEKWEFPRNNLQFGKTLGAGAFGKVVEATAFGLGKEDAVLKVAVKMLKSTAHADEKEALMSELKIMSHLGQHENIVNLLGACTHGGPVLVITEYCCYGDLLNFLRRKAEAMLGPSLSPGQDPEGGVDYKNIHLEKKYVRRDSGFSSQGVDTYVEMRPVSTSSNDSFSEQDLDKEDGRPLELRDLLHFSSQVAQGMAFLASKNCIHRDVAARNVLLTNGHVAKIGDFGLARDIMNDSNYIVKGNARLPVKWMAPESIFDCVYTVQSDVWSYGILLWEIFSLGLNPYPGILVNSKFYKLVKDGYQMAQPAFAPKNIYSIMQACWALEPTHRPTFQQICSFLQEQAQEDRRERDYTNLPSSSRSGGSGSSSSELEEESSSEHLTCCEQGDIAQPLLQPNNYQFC

With `COc1ccc(COc2ccc(Cc3cnc(N)nc3N)cc2O[11CH3])cc1` [[^11C]GW2580, 5-(3-[^11C]methoxy-4-((4-methoxybenzyl)oxy)benzyl)pyrimidine-2,4-diamine], the “blocking of brain uptake with GW2580” value in the data set on CSF1R [1] is 30%.
In the case of `N#Cc1ccc(C(=O)Nc2ccc(N3CCN(CCF)CC3)cc2N2CCCCC2)o1` [Ligand 1, 5-Cyano-N-(4-(4-(2-fluoroethyl)piperazin-1-yl)-2-(piperidin-1-yl)phenyl)furan-2-carboxamide], the IC50 on CSF1R [2] is 3.42 ± 0.33 nM.
For `N#Cc1ccc(C(=O)Nc2ccc(N3CCN(CC[18F])CC3)cc2N2CCCCC2)o1` [[^18F]1, 5-cyano-N-(4-(4-(2-[^18F]fluoroethyl)piperazin-1-yl)-2-(piperidin-1-yl)phenyl)furan-2-carboxamide], the logP in data set [3] stood at 2.3 ± 0.01. In addition, at CSF1R [4] (0.93 kBq radioligand), the “radioligand bound to CSF1R-coated wells relative to non-coated wells (control)” value was determined as 3.31 fold. For the same compound, at CSF1R [4] (1.85 kBq radioligand), the “radioligand bound to CSF1R-coated wells relative to non-coated wells (control)” value was 5.07 fold. The “radioligand bound to CSF1R-coated wells relative to non-coated wells (control)” value at CSF1R [4] (3.7 kBq radioligand) is 7.14 fold. Moreover, the “increase of brain uptake in LPS mice compared to control mice” value in data set [5] (45 min after radioligand injection) is 78%. Also, in data set [5] (LPS mice), the blood uptake came to 1.21 ± 0.11 % ID/g, the brain uptake is given as 2.14 ± 0.19 % ID/g, the femur uptake is on record as 1.95 ± 0.44 % ID/g and the kidney uptake is recorded as 2.23 ± 0.08 % ID/g. In data set [5] (LPS mice), the liver uptake amounted to 6.04 ± 0.91 % ID/g, the muscle uptake amounted to 1.03 ± 0.07 % ID/g and the spleen uptake is listed as 2.47 ± 0.19 % ID/g. Moreover, in data set [5] (setting [8]), the blood uptake was 1.30 ± 0.11 % ID/g, the brain uptake was 1.67 ± 0.16 % ID/g, the femur uptake is 2.11 ± 0.37 % ID/g and the kidney uptake is reported as 2.04 ± 0.10 % ID/g. In data set [5] (setting [8]), the liver uptake amounted to 3.15 ± 0.62 % ID/g, the muscle uptake amounted to 1.20 ± 0.19 % ID/g and the spleen uptake is reported as 1.45 ± 0.13 % ID/g. In data set [5] (control mice), this compound had a blood uptake of 0.93 ± 0.05 % ID/g, a brain uptake of 1.20 ± 0.06 % ID/g, a femur uptake of 1.80 ± 0.09 % ID/g and a kidney uptake of 1.97 ± 0.05 % ID/g. In data set [5] (control mice), the liver uptake amounted to 6.87 ± 0.48 % ID/g, the muscle uptake amounted to 0.96 ± 0.10 % ID/g and the spleen uptake is on record as 1.58 ± 0.20 % ID/g. Besides, the “time of peak whole brain uptake after radioligand injection” value in data set [6] is on record as at most 3 min. The “radioligand in blood converted to polar radiometabolites” value in data set [7] (blood samples, within 30 min after injection) was “approximately 65%”. Moreover, the “state of radioligand in the brain” value in data set [7] (brain homogenates at 5 and 30 min after injection) is given as “intact”.
